Measurements as given in patent US20110028719A1, “SCREENING METHODS FOR AMYLOID BETA MODULATORS” (priority 2006, published 2011).

target: immobilized Aβ fibrils (Homo sapiens, UniProt P05067); assay: FAC-MS assay of free Aβ monomer (indicator) binding to immobilized Aβ fibrils in the presence of test compounds; details: FAC-MS % shift of breakthrough time of free Aβ1-42 monomer (1 μM) on immobilized Aβ fibrils; compounds 1-10 μM in 20 mM NH4OAc, 1% DMSO; void marker M3
Sequence (P05067 672-713 limits assumed): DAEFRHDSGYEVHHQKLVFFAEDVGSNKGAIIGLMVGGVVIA

Row | Compound | % of Shift
1 | O=P(O)(O)O[C@@H]1C(O)[C@@H](OP(=O)(O)O)[C@@H](O)C(O)[C@H]1O (stereo partly drawn) [Compound I-3139, D-Myo-inositol-2,4-bis-phosphate, reference compound] | 12%
2 | O=S(=O)([O-])OC1C(OS(=O)(=O)[O-])C(OS(=O)(=O)[O-])C(OS(=O)(=O)[O-])C(OS(=O)(=O)[O-])C1OS(=O)(=O)[O-].[K+].[K+].[K+].[K+].[K+].[K+] (stereo not shown) [Compound I-6005, myo-inositol hexasulfate hexapotasium, reference compound] | 4%
3 | C[C@H]1O[C@H](OC2[C@@H](O)[C@@H](O)C(O)[C@H](O)[C@H]2O)[C@@H](N)C[C@@H]1N=C(N)C(=O)O.Cl (stereo partly shown) [Compound K413, Kasugamycin hydrochloride, reference compound] | 2%
4 | O=P(O)(O)O[C@H]1[C@H](OP(=O)(O)O)[C@@H](OP(=O)(O)O)[C@H](OP(=O)(O)O)[C@@H](OP(=O)(O)O)[C@H]1OP(=O)(O)O [Compound P-3168, Phytic acid, reference compound] | 2%
5 | CO[C@H]1[C@H](O)[C@@H](O)[C@@H](O)[C@H](O)[C@@H]1O [D-Pinitol, D-pinitol, reference compound] | 3%
6 | O[C@H]1[C@H](O)[C@@H](O)[C@H](O)[C@@H](O)[C@H]1O [Myo, myo-inositol, reference compound] | 34%

same assay, conditions: increasing concentrations; breakthrough curves shifted to the left (greater % shift); FIG. 3

Row | Compound | effect of increasing concentrations on free Aβ monomer binding time
7 | O[C@H]1[C@H](O)[C@@H](O)[C@H](O)[C@@H](O)[C@@H]1O [scyllo-cyclohexanehexyl, scyllo-inositol, reference compound] | dose dependent reduction in the free Aβ monomer binding time
